Assay results: US20210380535A1, “CO-CRYSTALS COMPRISING EPICATECHIN AND A CARBOXY-N-HETEROCYCLIC CO-CRYSTAL FORMER” (Epirium Bio Inc., priority 2018, published 2021)
Where two headings read alike, the source gives them in different places.

Columns and labels:
[1] = Pharmacokinetics study of (+)/(−) epicatechin and their trigonelline (1:1) co-crystals, oral (Example 3); assay type: in vivo; settings: rat, 10 mg/kg, male SD rats, 10 mpk equivalent of parent drug, vehicle CMC and Tween 80, plasma; for half-life: read-out: T½ elimination (converted)
Method: (§1) Co-crystals of the present invention were administered orally (PO) at a dose of 10 mpk equivalent of parent drugs in male SD rats. The PK results of the compound were compared with exposure of parent drugs. […] Blood samples were centrifuged at 10,000 rpm for 5 min. at 4° C. to obtain the plasma, which were aspirated into separate labelled tubes and stored at −80° C. Extraction solvent was added to plasma, was vortexed and shaken on shaker for 10 minutes, centrifuged at 10,000 rpm for 10 minutes at 4° C. Supernatant was kept for analysis.

[2] = Pharmacokinetics study of (+) epicatechin (SPR590) and its trigonelline (1:1) co-crystal (SPR515), oral (Example 4); assay type: in vivo; settings: rat, plasma, male SD rats, CMC and Tween 80
Method: as §1, with “mpk” for “mpk equivalent of parent drugs”, “rats for the control (+) epicatechin group and 10 mpk of SPR 515 which is equivalent to 6.25 mpk of epicatechin.” for “rats.”

[3] = average; male SD rats, PO, 14 mpk of Compound 109 (equivalent to 10 mpk epicatechin), vehicle 0.5% CMC
Method: A pharmacokinetics study was carried out to evaluate the plasma exposure of D-proline co-crystals of (+) epicatechin (Compound 109). Co-crystals were administered orally (PO) at a dose of 14 mpk of Compound 109, which is equivalent to 10 mpk of epicatechin. The dosing vehicle that was used in this study was 0.5% CMC. After oral dosing, blood was collected by serial bleeding at different time points in heparinised tubes. Blood samples were centrifuged at 10,000 rpm for 5 min. at 4° C. to obtain the plasma, which were aspirated into separate labelled tubes and stored at −80° C. Extraction solvent was added to plasma, was vortexed and shaken on a shaker for 10 minutes, and then centrifuged at 10,000 rpm for 10 minutes at 4° C. Supernatant was kept for analysis. Acetonitrile and plasma calibration curves were generated and percentage of drug recovery from plasma determined. Quantitative analysis was done by liquid chromatography tandem mass spectrometer (API3000 LC-MS/MS). PK parameters were calculated using Graph Pad PRISM version 5.04 and the results are depicted in Table 7.

[4] = PO, dose 10 mpk (MW adjusted (+)-epicatechin dose: SPR590 10 mpk, SPR515 6.25 mpk)

| AUC [1] | Cmax [1] | Tmax [1] | half-life [1] | AUC [2, 4] | Cmax [2, 4] | concentration at 0.16 h ([2]; time point 0.16 h, PO 10 mpk (SPR515: equivalent to 6.25 mpk epicatechin), read-out: Plasma level) | concentration at 0.5 h ([2]; time point 0.5 h, PO 10 mpk (SPR515: equivalent to 6.25 mpk epicatechin), read-out: Plasma level) | concentration at 1 h ([2]; time point 1 h, PO 10 mpk (SPR515: equivalent to 6.25 mpk epicatechin), read-out: Plasma level) | concentration at 2 h ([2]; time point 2 h, PO 10 mpk (SPR515: equivalent to 6.25 mpk epicatechin), read-out: Plasma level) | concentration at 4 h ([2]; time point 4 h, PO 10 mpk (SPR515: equivalent to 6.25 mpk epicatechin), read-out: Plasma level) | concentration at 8 h ([2]; time point 8 h, PO 10 mpk (SPR515: equivalent to 6.25 mpk epicatechin), read-out: Plasma level) | AUC [3] | Cmax [3] | Tmax [3] | T½ elimination [3] | SMILES |
| --- | --- | --- | --- | --- | --- | --- | --- | --- | --- | --- | --- | --- | --- | --- | --- | --- |
| 0.678 µM·h | 386 nM | 18 min | 113 min |  |  |  |  |  |  |  |  |  |  |  |  | Oc1cc(O)c2c(c1)O[C@H](c1ccc(O)c(O)c1)[C@H](O)C2 [Compound 107, (−) epicatechin] |
| 0.579 µM·h | 333 nM | 60 min | 49.8 min | 0.678 µM·h | 386 nM | 236 nM | 338 nM | 262 nM | 152 nM | 24.1 nM | 0 nM |  |  |  |  | Oc1cc(O)c2c(c1)O[C@@H](c1ccc(O)c(O)c1)[C@@H](O)C2 [Compound 108, (+) epicatechin] |
|  |  |  |  |  |  |  |  |  |  |  |  | 1.90533 µM·h | 778 nM | 45 min | 103 min | O=C(O)[C@H]1CCCN1.Oc1cc(O)c2c(c1)O[C@@H](c1ccc(O)c(O)c1)[C@@H](O)C2 [Compound 109, (+) Epicatechin_(D)-Proline (1:1) Co-Crystals] |
